{"source": "patent US7005533B2", "about": "“Bisphosphonate derivatives, their preparations and uses” (Universite Paris 13, priority 2001, dated 2006)", "key": {"[1]": {"test": "Trypan blue exclusion test (cytotoxicity of BP1 and BP2)", "assay_type": "cell-based", "details": "even at concentrations above 5 mM"}, "[2]": {"test": "Toxicity test in tumor-free immunosuppressed mice", "assay_type": "in vivo", "details": "one injection per day for one week", "method": "Tumor-free immunosuppressed mice were treated with BP1 and BP2 at doses ranging from 0.06 to 6 mg per injection and per animal. Mice received one injection per day for one week. Animals were weighed before, during and after treatment."}, "A 431 tumors [3]": {"test_system": "A 431 tumors", "test": "In vivo growth of subcutaneous A 431 tumors in immunosuppressed mice", "details": "for inhibition of the growth of A 431 tumors: 0.6 mg/injection/mouse, twice weekly s.c. near the tumor, after 5 weeks of treatment, P<0.05", "method": "A 431 cells were injected subcutaneously into immunosuppressed mice. The mice developed tumors within one week. Tumor-bearing mice were assigned randomly to a control group or to treatment groups receiving different concentrations of BP1 and BP2.\nMice received twice weekly by subcutaneous injection near the tumor either 0.1 ml of PBS alone for the controls (n=6), or PBS containing either BP1 or BP2 at the following doses: 0.006 (n=6); 0.06 (n=6) or 0.6 mg/injection (n=6). Tumors were measured weekly and their volume V calculated by the formula: V=(4/3)πR1^2R2 wherein R1 is radius 1 and R2 radius 2, with R1<R2."}, "A 431 tumors [4]": {"test_system": "A 431 tumors", "test": "Intratumoral angiogenesis of A 431 tumors (GSL 1 immunohistochemistry, image analysis)", "assay_type": "in vivo, mice", "details": "observed starting from the lowest doses (0.006 mg/injection)", "method": "Animals were sacrificed and the tumors excised, then weighed, fixed, embedded in paraffin and sliced. Endothelial cells from tumor blood vessels laid down during tumor angiogenesis were visualized by immunohistochemical methods (GSL 1). Tumor angiogenesis was evaluated by image analysis with NIH image software."}, "[5]": {"test_system": "FRCjun MRA, a murine fibrosarcoma cell line", "test": "MTT cell proliferation test, FRCjun MRA cells", "assay_type": "cell-based", "details": "Mus musculus; 2 mM, after 48 h of culture, FRCjunMRA cells", "method": "(§1) The bisphosphonates BP1 and BP2 were tested in different cell lines: • FRCjun MRA, a murine fibrosarcoma cell line produced by transfection of FR3T3 cells by the oncogene jun-4, • A 431 human carcinoma cells. These cells harbor a VEGF (vascular endothelial growth factor) autocrine loop and, after implantation in immunosuppressed mice, induce rapid development of highly angiogenic tumors. • MDA MB 435 human breast tumor cells, • HUV-EC-C, transformed human umbilical cord endothelial cells (HUVEC), • BBC, bovine cerebral capillary endothelial cells.\n(§2) Cell proliferation in the presence of different concentrations of BP1 or BP2 was measured by an MTT test after 24, 48 and 72 h of culture."}, "[6]": {"test_system": "MDA MB 435 human breast tumor cells", "test": "MTT cell proliferation test, MDA MB 435 cells", "assay_type": "cell-based", "details": "2 mM, after 48 h of culture", "method": "as §1, §2"}, "[7]": {"test_system": "A 431 human carcinoma cells", "test": "MTT cell proliferation test, A 431 cells", "assay_type": "cell-based", "details": "2 mM", "method": "as §1, §2"}, "MCF7-ras cells [8]": {"test_system": "MCF7-ras cells", "test": "MCF7-ras cell growth and viability (Trypan blue test)", "assay_type": "cell-based", "details": "for toxicity (cell viability, Trypan blue): 8 and 10 mM", "method": "MCF7-ras cells are cultivated (20,000 cells/well), on a dish of 24 wells. After incubation for 24 hours, the medium (DMEM with 10% foetal calf serum) is replaced with the same medium to which are added various concentrations of phenylacetate bisphosphonate (2 mM, 4 mM, 6 mM, 8 mM and 10 mM). The cells are incubated for 1 to 4 days at 37° C. The cell viability is controlled by the Trypan blue test."}, "MCF7-ras cells [9]": {"test_system": "MCF7-ras cells", "test": "Reversibility of proliferation inhibition, tritiated thymidine incorporation", "assay_type": "cell-based", "details": "10 days treatment, thymidine after 15 days", "method": "In order to check the reversibility of the effect of phenylacetate bisphosphonate, MCF7-ras cells have been treated with increasing concentrations of phenylacetate bisphosphonate for 10 days, the medium being changed every two days. The cells are divided in two groups. The DMEM medium supplemented with 10% of foetal calf serum is added to the first group, and the same medium with 10 mM of phenylacetate bisphosphonate is added to the second group, the medium being changed every two days. After 15 days, tritiated thymidine is added during 4 hours and the radioactivity of the suspension is determined by using a beta liquid scintigraphic counter (Beckman)."}, "MCF7 cells [10]": {"test_system": "MCF7 cells", "test": "Apoptosis by Annexine V-FITC / propidium iodide, MCF7 cells", "assay_type": "cell-based", "details": "10 mM, after 4 hours of treatment", "method": "(§3) In order to determine the nature of the toxicity of sodium phenylacetate bisphosphonate, MCF7 and MCF7-ras cells are cultivated, and then washed after 24 hours, and cultivated for 3 hours in DMEM medium with 10% of foetal calf serum. Phenylacetate bisphosphonate (10 mM) is added to one group but not to the other group. Apoptosis is determined by the test of Annexine V conjugated with FITC antibody. Propidium iodide is used in order to determine early apoptosis (positive staining for Annexine V and negative staining with propidium iodide) and late apoptosis (positive staining with Annexine V and with propidium iodide)."}, "MCF7-ras cells [11]": {"test_system": "MCF7-ras cells", "test": "Apoptosis by Annexine V-FITC / propidium iodide, MCF7-ras cells", "assay_type": "cell-based", "details": "10 mM, after 4 hours of treatment", "method": "as §3"}, "MCF7 cells [12]": {"test_system": "MCF7 cells", "test": "DNA degradation (agarose gel electrophoresis), MCF7 cells", "assay_type": "cell-based", "details": "10 mM, after 96 hours", "method": "(§4) The cell apoptosis is confirmed by the method of DNA degradation. MCF7 and MCF7-ras cells are cultivated (5×10^5 cells in T25 flasks). After 24 hours, the cells are washed, and then cultivated in DMEM medium with 10% of foetal calf serum; phenylacetate bisphosphonate (10 mM) is added to one group, and no phenylacetate bisphosphonate is added to the other group.\n(§5) After 96 hours, the cell extract containing the fragmented DNA is incubated with 0.5 mg/ml of RNase A at 37° C. for one hour, then with 0.5 mg/ml of proteinase K for one hour at 37° C. After incubation, the fragmented DNA is precipitated by isopropanol and then dissolved in 10 mM of Tris-HCl (pH 8) […], 5% of glycerol and 0.05% bromophenol blue. The fragmented DNA separated by electrophoresis on agarose gel at 1% is marked with ethidium bromide and photographed in UV."}, "MCF7-ras cells [13]": {"test_system": "MCF7-ras cells", "test": "DNA degradation (agarose gel electrophoresis), MCF7-ras cells", "assay_type": "cell-based", "details": "10 mM, after 96 hours", "method": "as §4, §5"}, "MCF7-ras tumors [14]": {"test_system": "MCF7-ras tumors", "test": "In vivo antitumor effect on MCF7-ras tumors in female athymic nude mice", "method": "Inoculation of 4×10^6 MCF7-ras cells in female athymic nude mice is made sub-cutaneously in a 0.1 ml volume of DMEM, which induces 70% of tumors after three weeks.\nTreatment with phenylacetate bisphosphonate begun when the mean volume of the tumors was 550 mm^3. The animals are divided in two groups, on receiving phenylacetate bisphosphonate, and the other no. Phenylacetate bisphosphonate is injected sub-cutaneously and peritumorally, twice a week, during 5 weeks, and the doses are 80 mg/kg (5 cases) and 160 mg/kg (6 cases)."}, "MCF7-ras tumors [15]": {"test_system": "MCF7-ras tumors", "test": "Pro-apoptotic effect in MCF7-ras tumors, M30 antibody staining", "assay_type": "in vivo, mice", "text": "Further, the proapoptotic effect of phenylacetate bisphosphonate is confirmed by the technique of antibody staining. The staining of apoptotic cells is made by the M30 antibody which recognises the specific site of caspases on the cytokeratine 18 filaments produced by the epithelial cells. Such filaments rapidly aggregate in the cells in early apoptosis, by hyperphosphorylation of cytokeratines. By this cytoplasmic staining, granular structures are observed inside the cytoplasm, which corresponds to cells in late apoptosis."}, "MCF7-ras tumors [16]": {"test_system": "MCF7-ras tumors", "test": "Anti-angiogenic effect in MCF7-ras tumors, GSL1 lectin method", "assay_type": "in vivo, mice", "method": "The anti-angiogenic was verified by the GSL1 lectin method.\nBy using GSL1 lectin, angiogenesis is determined and identified by the red coloration staining of endothelial cells with anti-GSL1 antibody. It is noted that this angiogenesis is inhibited by the treatment of the tumors with phenylacetate bisphosphonate. This effect is partial but important (80%) at the 80 mg/kg dose. and complete at 160 mg/kg."}, "acute hepatitis": {"test_system": "acute hepatitis", "test": "Liver histology (HES) in nude mice having an acute hepatitis", "assay_type": "in vivo", "details": "80 mg/kg or 160 mg/kg s.c., twice a week for five weeks", "method": "The study is carried out on nude mice having an acute hepatitis. The mice are divided in two groups, one being treated with sodium phenylacetate bisphosphonate, whilst the second is not. Phenylacetate bisphosphonate is administered to the treated mice sub-cutaneously (80 mg/kg or 160 mg/kg), twice a week for five weeks. The mice are sacrificed and the liver is histologically analyzed after HES (method of Hematoxiline Eosine Staining)."}}}
{"smiles": "O=P(O)(O)C(O)(Cc1ccccc1)P(=O)(O)O", "note": "[BP1, reference compound]", "values": [{"measurement": "cytotoxicity (trypan blue exclusion)", "setting": "[1]", "value": "do not induce cytotoxicity"}, {"measurement": "signs of toxicity such as hair loss, diarrhea, infection or anemia", "setting": "[2]; doses less than 6 mg/injection", "value": "no signs of toxicity"}, {"measurement": "inhibition of the growth of A 431 tumors", "setting": "A 431 tumors [3]", "value": 40, "unit": "%"}, {"measurement": "inhibition of intratumoral angiogenesis (endothelial cell area per unit of area)", "setting": "A 431 tumors [4]", "value": "significant decrease in endothelial cell area per unit of area"}]}
{"smiles": "COP(=O)(O)C(O)(Cc1ccccc1)P(=O)(O)OC", "note": "(centres unmarked) [BP2]", "values": [{"measurement": "inhibition at 2000 µM", "setting": "[5]", "value": 40, "unit": "%"}, {"measurement": "inhibition at 2000 µM", "setting": "[6]", "value": 60, "unit": "%"}, {"measurement": "inhibition at 2000 µM", "setting": "[7]; after 48 h of culture", "value": 30, "unit": "%"}, {"measurement": "inhibition at 2000 µM", "setting": "[7]; after 72 h, P<0.05", "value": 80, "unit": "%"}, {"measurement": "cytotoxicity (trypan blue exclusion)", "setting": "[1]", "value": "do not induce cytotoxicity"}, {"measurement": "signs of toxicity such as hair loss, diarrhea, infection or anemia", "setting": "[2]; all doses tested (0.06–6 mg/injection)", "value": "no signs of toxicity"}, {"measurement": "inhibition of the growth of A 431 tumors", "setting": "A 431 tumors [3]", "value": 56, "unit": "%"}, {"measurement": "comparative in vivo efficacy", "setting": "A 431 tumors [3]; A 431 tumors in mice", "value": "greater efficacy than BP1"}, {"measurement": "inhibition of intratumoral angiogenesis (endothelial cell area per unit of area)", "setting": "A 431 tumors [4]", "value": "significant decrease in endothelial cell area per unit of area"}]}
{"smiles": "O=P(O)(O)C(O)(Cc1ccccc1)P(=O)(O)O", "note": "[phenylacetate bisphosphonate]", "values": [{"measurement": "toxicity (cell viability, Trypan blue)", "setting": "MCF7-ras cells [8]; by the fourth day of culture", "value": "50–60%"}, {"measurement": "toxicity (cell viability, Trypan blue)", "setting": "MCF7-ras cells [8]; three first days of culture", "value": 10, "unit": "%"}, {"measurement": "effect on cell growth", "setting": "MCF7-ras cells [8]; concentrations lower than 6 mM, three first days of culture", "value": "cytostatic"}, {"measurement": "reversibility of the inhibition of cell proliferation", "setting": "MCF7-ras cells [9]; dose above 4 mM", "value": "irreversible"}, {"measurement": "reversibility of the inhibition of cell proliferation", "setting": "MCF7-ras cells [9]; dose of 2 mM", "value": "partially reversible"}, {"measurement": "percentage of cells in late apoptosis", "setting": "MCF7 cells [10]; MCF7 cells", "value": 22, "unit": "%"}, {"measurement": "percentage of cells in early apoptosis", "setting": "MCF7 cells [10]; MCF7 compared with MCF7-ras", "value": "almost identical in the two cell types"}, {"measurement": "percentage of cells in late apoptosis", "setting": "MCF7-ras cells [11]; MCF7-ras cells", "value": 53, "unit": "%"}, {"measurement": "percentage of cells in early apoptosis", "setting": "MCF7-ras cells [11]; MCF7-ras compared with MCF7", "value": "almost identical in the two cell types"}, {"measurement": "degradation of DNA", "setting": "MCF7 cells [12]", "value": "dramatic degradation of DNA"}, {"measurement": "degradation of DNA", "setting": "MCF7-ras cells [13]", "value": "dramatic degradation of DNA"}, {"measurement": "tumor growth when the treatment is stopped", "setting": "MCF7-ras tumors [14]; 80 mg/kg dose", "value": "tumor growth relapsed is observed"}, {"measurement": "tumor growth when the treatment is stopped", "setting": "MCF7-ras tumors [14]; 160 mg/kg dose", "value": "blocked for at least three weeks"}, {"measurement": "inhibition of the growth of the tumors", "setting": "MCF7-ras tumors [14]; 80 and 160 mg/kg s.c. peritumorally, twice a week, 5 weeks, at the end of the treatment", "value": "irreversible and dose dependent"}, {"measurement": "toxic effect in vivo", "setting": "MCF7-ras tumors [14]; even when the treatment is applied during a long period of time", "value": "without any toxic affect"}, {"measurement": "proliferation of MCF7-ras cells and growth of mammary tumors in vivo", "setting": "MCF7-ras tumors [14]; first five or six weeks of treatment", "value": "irreversibly blocks"}, {"measurement": "immunohistologic analysis of the tumors: what the decrease in tumor growth is related to", "setting": "MCF7-ras tumors [14]; treated MCF7-ras tumors", "value": "induction of apoptosis, to a sharp decrease of angiogenesis of the tumor and induction of fibrose in the tumor"}, {"measurement": "state of tumor cells (M30 / cytokeratine 18 staining)", "setting": "MCF7-ras tumors [15]; 80 mg/kg dose", "value": "apoptosis"}, {"measurement": "state of tumor cells (M30 / cytokeratine 18 staining)", "setting": "MCF7-ras tumors [15]; 160 mg/kg dose", "value": "aponecrosis"}, {"measurement": "inhibition of tumor angiogenesis", "setting": "MCF7-ras tumors [16]; 80 mg/kg dose", "value": 80, "unit": "%"}, {"measurement": "inhibition of tumor angiogenesis", "setting": "MCF7-ras tumors [16]; 160 mg/kg", "value": "complete"}, {"measurement": "hepatic toxicity noted in treated mice", "setting": "acute hepatitis", "value": "4 cases out of 5"}]}
